In patent US4117122A, “11-Aminoalkylmorphanthridin-11-ols” (Richardson-Merrell Inc., priority 1976, dated 1978):

Experiments:
[1] = system: reserpine-induced depression; test: antagonism of reserpine-induced depression in mice (standard antidepressant test); assay type: in vivo; settings: for antidepressant potency relative to imipramine: compared with imipramine; for antagonism of reserpine-induced depression: mice, intraperitoneal doses of 5 to 30 mg/kg
Source text: (§1) The compounds of the present invention are unique in pharmacologic activity.

[2] = oral LD50 in standard animal tests; assay type: in vivo; settings: for LD50: in vivo, standard animal tests, approximately
Source text: as §1

[3] = Source text: as §1

| SMILES | antidepressant potency relative to imipramine [1] | antagonism of reserpine-induced depression [1] | oral LD50 compared with imipramine [2] | LD50 [2] [mg/kg] | anticholinergic activity [3] |
| --- | --- | --- | --- | --- | --- |
| CN(C)CCCC1(O)c2ccccc2CNc2ccc(Cl)cc21 (stereo not shown) [2-Chloro-11-(3-dimethylaminopropyl)-5,6-dihydromorphanthridin-11-ol] | at least ten times more potent than that of imipramine | antagonize reserpine-induced depression in mice | substantially greater than that of imipramine | ~175 | no significant anticholinergic activity |
| CN(C)CCCC1(O)c2ccccc2C=Nc2ccccc21 (stereo not shown) [11-(3-Dimethylaminopropyl)morphanthridin-11-ol] | at least ten times more potent than that of imipramine | antagonize reserpine-induced depression in mice | substantially greater than that of imipramine | ~130 | no significant anticholinergic activity |
